Source: patent US7718190B2, “Self forming, thermodynamically stable liposomes and their applications” (priority 2000, dated 2010)
Values belong to the compound of their own block, whether it stands above or below them.

How the values were obtained:
[1] = Dissolution of compounds in PEG-12 Glyceryl Dioleate; assay type: physicochemical; conditions: for Dissolution in PEG-12 Glyceryl Dioleate (observation): before addition of water
Experimental: It will be appreciated that, while liposomes form spontaneously at the temperature of formation, cooling of liposomes after formation results in liposomes in trapped kinetic states. To minimize distortions in liposome structure upon such cooling, sterols such as cholesterol may be mixed with the lipid before liposome formation. It has been observed that cholesterol may be dissolved in PEG-12 GDO at up to about 10 percent by weight.
Methotrexate (Sigma) was dissolved in PEG-12 Glyceryl Dioleate and gently mixed for about 5 minutes. […] Deionized water was slowly added to the solution and gently mixed. The resultant mixture was a yellow, opaque solution.
Tretinoin (all-trans retinoic acid), 6 mg, was dissolved in 500 ul of PEG-12 Glyceryl Dioleate. […] Distilled water, 4.5 ml, was added to the mixture and gently mixed. This yielded a concentration of […]. […] This solution can easily be incorporated into a cream, gel or lotion dosage form.

[2] = Spontaneous liposome formation of single lipids mixed with aqueous solution; assay type: physicochemical
Experimental: Lipids were tested at 2 weight percent in aqueous solution. Note that GDL means glycerol dilaurate, GDO means glycerol dioleate, GDM means glycerol dimyristate, GDP means glycerol dipalmitate, and GDS means glycerol distearate. For each lipid, the number after “PEG” indicates the numbers of C2H4O subunits in the PEG chain. The unsaturated dioleate lipids have similar packing parameters to the saturated dimyristate lipids.
Single lipids were tested for their ability to spontaneously form liposomes when mixed with an aqueous solution. PEG-12 GDO was obtained from Global 7 (New Jersey). All other lipids were synthesized for the experiment. For each experiment, water and lipid were separately equilibrated at the appropriate temperature. Two weight percent lipid was added to the aqueous solution, and the solution was analyzed for the presence of liposomes by optical light microscopy, cryo TEM, freeze fracture TEM, or hot stage microscopy.

Dissolution in PEG-12 Glyceryl Dioleate (observation) [1]: clear solution
Compound: CN(Cc1cnc2nc(N)nc(N)c2n1)c1ccc(C(=O)N[C@@H](CCC(=O)O)C(=O)O)cc1 [Methotrexate]

Dissolution in PEG-12 Glyceryl Dioleate (observation) [1]: Dissolution was complete
Compound: CC1=C(/C=C/C(C)=C/C=C/C(C)=C/C(=O)O)C(C)(C)CCC1 [Tretinoin]

Amount dissolved in PEG-12 GDO ([1]; in PEG-12 GDO): up to 10 percent by weight
Compound: CC(C)CCC[C@@H](C)[C@H]1CC[C@H]2[C@@H]3CC=C4C[C@@H](O)CC[C@]4(C)[C@H]3CC[C@]12C [cholesterol]

Spontaneous Liposomes at 20° C. ([2]; 2 weight percent lipid in aqueous solution, 20° C.): YES
Spontaneous Liposomes at 37° C. ([2]; 2 weight percent lipid in aqueous solution, 37° C.): YES
Spontaneous Liposomes at 60° C. ([2]; 2 weight percent lipid in aqueous solution, 60° C.): YES
Compound: PEG-12 Glyceryl Dioleate [PEG-12 GDO]
Spontaneous liposome formation ([2]; all temperatures tested (20, 37, 60° C.)): spontaneously forms liposomes at all temperatures tested
